Results reported in ChEMBL document CHEMBL3046437, “Synthesis, characterization and biological evaluation of some pyridine and quinoline fused chromenone derivatives” (2012).
Converted amounts (≈) assume the structure as drawn. The source made the active and inactive calls. No cut-off for these calls is given here.

How the values were obtained:
Assay type in all cases: functional
Fusarium oxysporum [1] = test: Antifungal activity against Fusarium oxysporum ATCC 16417 at 100 ug/ml after 48 hr by agar diffusion method; details: for zone of inhibition at 100 µg/mL: ATCC 16417, 48 h, read-out: DIZ
Streptococcus pyogenes [2] = test: Antibacterial activity against Streptococcus pyogenes ATCC 19615 after 24 to 48 hr by two-fold serial dilution method
Aspergillus niger [3] = test: Antifungal activity against Aspergillus niger MTCC 282 after 24 to 48 hr by two-fold serial dilution method
Staphylococcus aureus [4] = test: Antibacterial activity against Staphylococcus aureus ATCC 25923 after 24 to 48 hr by two-fold serial dilution method
Staphylococcus aureus [5] = test: Antibacterial activity against Staphylococcus aureus ATCC 25923 at 100 ug/ml after 24 hr by agar diffusion method; details: ATCC 25923, 24 h, read-out: DIZ
Pseudomonas [6] = test: Antibacterial activity against Pseudomonas phaseolicola GSPB 2828 after 24 to 48 hr by two-fold serial dilution method
Aspergillus niger [7] = test: Antifungal activity against Aspergillus niger MTCC 282 at 100 ug/ml after 48 hr by agar diffusion method; details: MTCC 282, 48 h, read-out: DIZ
Pseudomonas [8] = test: Antibacterial activity against Pseudomonas phaseolicola GSPB 2828 at 100 ug/ml after 24 hr by agar diffusion method; details: GSPB 2828, 24 h, read-out: DIZ
Pseudomonas fluorescens [9] = test: Antibacterial activity against Pseudomonas fluorescens S 97 after 24 to 48 hr by two-fold serial dilution method
Streptococcus pyogenes [10] = test: Antibacterial activity against Streptococcus pyogenes ATCC 19615 at 100 ug/ml after 24 hr by agar diffusion method; details: ATCC 19615, 24 h, read-out: DIZ
Pseudomonas fluorescens [11] = test: Antibacterial activity against Pseudomonas fluorescens S 97 at 100 ug/ml after 24 hr by agar diffusion method; details: S 97, 24 h, read-out: DIZ
Fusarium oxysporum [12] = test: Antifungal activity against Fusarium oxysporum ATCC 16417 after 24 to 48 hr by two-fold serial dilution method

Row | Compound | diameter of the inhibition zone (DIZ) (Fusarium oxysporum [1]) | MIC (Streptococcus pyogenes [2]) [µg/mL] | MIC (Aspergillus niger [3]) [µg/mL] | MIC (Staphylococcus aureus [4]) [µg/mL] | zone of inhibition at 100 µg/mL (Staphylococcus aureus [5]) [mm] | MIC (Pseudomonas [6]) [µg/mL] | zone of inhibition at 100 µg/mL (Aspergillus niger [7]) [mm] | zone of inhibition at 100 µg/mL (Pseudomonas [8]) [mm] | MIC (Pseudomonas fluorescens [9]) [µg/mL] | zone of inhibition at 100 µg/mL (Streptococcus pyogenes [10]) [mm] | zone of inhibition at 100 µg/mL (Pseudomonas fluorescens [11]) [mm] | zone of inhibition at 100 µg/mL (Fusarium oxysporum [1]) [mm] | MIC (Fusarium oxysporum [12]) [µg/mL]
1 | Cc1cccc2c1oc(=O)c1cc3c(nc12)CCC3 | inactive | 12.5 (≈ 49.7 µM) | 12.5 (≈ 49.7 µM) | 12.5 (≈ 49.7 µM) | 25 | 25 (≈ 99.5 µM) | 28 | 19 | 50 (≈ 199 µM) | 22 | 14 | – | –
2 | C[C@@H]1C[C@@H]([C@H](O)CC2CC(=O)NC(=O)C2)C(=O)[C@@H](C)C1 [CYCLOHEXIMIDE] | – | – | 6.25 (≈ 22.2 µM) | – | – | – | 42 | – | – | – | – | 43 | 3.12 (≈ 11.1 µM)
3 | O=c1oc2ccc(Cl)cc2c2nc3c(cc12)CCC3 | – | 12.5 (≈ 46 µM) | 25 (≈ 92 µM) | 12.5 (≈ 46 µM) | 26 | 100 (≈ 368 µM) | 32 | 14 | 12.5 (≈ 46 µM) | 24 | 20 | 8 | > 100
4 | Cc1ccc2oc(=O)c3cc4c(nc3c2c1)CCC4 | – | 50 (≈ 199 µM) | 50 (≈ 199 µM) | 50 (≈ 199 µM) | 18 | 50 (≈ 199 µM) | 24 | 15 | 25 (≈ 99.5 µM) | 19 | 17 | 30 | 12.5 (≈ 49.7 µM)
5 | O=c1oc2ccccc2c2nc3c(cc12)CCc1ccccc1-3 | – | 12.5 (≈ 41.8 µM) | 12.5 (≈ 41.8 µM) | 25 (≈ 83.5 µM) | 20 | 50 (≈ 167 µM) | 25 | 16 | 25 (≈ 83.5 µM) | 19 | 19 | 10 | 100 (≈ 334 µM)
6 | O=c1oc2ccccc2c2nc3c(cc12)CCC3 | – | 25 (≈ 105 µM) | > 100 | 50 (≈ 211 µM) | 19 | 50 (≈ 211 µM) | 10 | 14 | 50 (≈ 211 µM) | 20 | 19 | 18 | 50 (≈ 211 µM)
7 | O=c1oc2ccccc2c2nc3c(cc12)CCCC3 | – | 50 (≈ 199 µM) | 50 (≈ 199 µM) | 25 (≈ 99.5 µM) | 22 | 25 (≈ 99.5 µM) | 22 | 20 | 25 (≈ 99.5 µM) | 22 | 17 | 26 | 12.5 (≈ 49.7 µM)
8 | CC(=O)OCC1=C(C(=O)O)N2C(=O)[C@@H](NC(=O)Cc3cccs3)[C@H]2SC1 [CEPHALOTHIN] | – | 6.25 (≈ 15.8 µM) | – | 6.25 (≈ 15.8 µM) | 36 | 6.25 (≈ 15.8 µM) | – | 38 | 6.25 (≈ 15.8 µM) | 37 | 37 | – | –
